Assay results published in paper PMC12471852, “Design and Synthesis of Marine-Inspired Itampolin A Derivatives to Overcome Chemoresistance in NSCLC via Cholesterol Homeostasis Modulation” (Marine Drugs, 2025).
Values joined by “and” are separate entries in the source; they are usually repeats but may differ in a detail not shown here. Equal entries are not always repeated. Where two headings read alike, the source gives them in different places.

How the values were obtained:
[1] = target: T1, p38α (Homo sapiens, UniProt Q16539); test: ADP-Glo Kinase Assay, p38α MAP kinase inhibition; assay type: biochemical; conditions: read-out: p38α MAP kinase inhibitory activity IC50
Procedure: The capacity of brominated tyrosine derivatives to inhibit p38α activity was evaluated using the ADP-Glo Kinase Assay.

[2] = target: T1, p38α; parameters: method as in PMID 30642059; conditions: compounds 6a–6o synthesized in previous work; read-out: p38α MAP kinase inhibitory activity IC50; cited from earlier work
[3] = system: PC9 cells; test: MTT anti-proliferation assay, PC9 cells; assay type: cell-based, human; conditions: for MTT, PC9, value relative to control (=100), single replicate: 24 h
Procedure: (§1) To evaluate the tumor-selective activity of compounds 4l and 4m, dose–response studies were performed on wild-type PC9 and gefitinib-resistant PC9/GR cell lines. […] Subtoxic concentrations of 25, 50, and 75 μM were employed to ensure specificity for drug-resistant phenotypes while preserving normal cell viability. […] To assess long-term proliferative potential, clonogenic survival assays were performed. Cells pretreated with 4l (24 h) were trypsinized to generate single-cell suspensions, plated at 300 cells/well, and cultured for 14 days. […] Cell migration ability was evaluated by the scratch healing assay. […] To evaluate the pro-apoptotic efficacy of 4l, we employed a dual-staining approach using Annexin V-FITC and propidium iodide (PI) for quadrant-specific quantification of programmed cell death. Annexin V binds externalized phosphatidylserine (PS), a hallmark of early apoptosis, while PI permeabilization discriminates late-stage apoptotic or necrotic cells.
(§2) The human normal lung epithelial cell line BEAS-2B, non-small cell lung carcinoma (NSCLC) cell line PC9, and gefitinib-resistant PC9/GR cell line were purchased from Procell Life Science & Technology Co., Ltd. (Wuhan, China). All cell lines were maintained in RPMI-1640 medium (BI, Beit Haemek, Mateh Asher, Israel) supplemented with 10% fetal bovine serum (FBS, Gibco, Thermo Fisher Scientific, Waltham, MA, USA) and 1% penicillin–streptomycin–amphotericin B sterile solution (Solarbio, Beijing, China). Cells were cultured at 37 °C in a humidified incubator with 5% CO2. For subculturing, cells were harvested using trypsin-EDTA solution upon reaching 70–80% confluence and resuspended at appropriate densities for subsequent experiments.
(§3) MTT: Cells (5 × 10^4/mL) were treated with 4l (25–100 μM, 24–48 h), incubated with MTT (10 μL/well, 4–6 h), and dissolved in DMSO. Absorbance (490 nm) was measured to assess viability.

[4] = system: PC9/GR cells; test: MTT anti-proliferation assay, gefitinib-resistant PC9/GR cells; assay type: cell-based, human; conditions: for MTT, PC9/GR, value relative to control (=100), single replicate: 24 h
Procedure: as §1, §2, §3

T1 sequence (Q16539 whole entry): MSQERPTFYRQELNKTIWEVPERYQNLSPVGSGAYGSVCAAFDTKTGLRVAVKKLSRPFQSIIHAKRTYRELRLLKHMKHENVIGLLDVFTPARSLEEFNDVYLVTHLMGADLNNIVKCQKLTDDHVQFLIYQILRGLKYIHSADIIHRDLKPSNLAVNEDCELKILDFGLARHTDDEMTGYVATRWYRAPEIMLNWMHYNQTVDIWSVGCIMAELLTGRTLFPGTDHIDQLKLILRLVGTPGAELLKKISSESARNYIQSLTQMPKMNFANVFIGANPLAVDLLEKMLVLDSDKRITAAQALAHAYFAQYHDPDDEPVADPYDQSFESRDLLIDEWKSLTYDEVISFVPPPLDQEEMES

| Structure (SMILES) | IC50 [1] [nM] | other results |
| --- | --- | --- |
| O=C(NCCc1cc(Br)c(O)c(Br)c1)Nc1cccc(Cl)c1 [4i, 1-(3-chlorophenyl)-3-(3,5-dibromo-4-hydroxyphenethyl)urea] | 13.9 ± 2.7 | – |
| O=C(NCCc1cc(Br)c(O)c(Br)c1)Nc1ccc(Br)cc1 [4k, 1-(4-bromophenyl)-3-(3,5-dibromo-4-hydroxyphenethyl)urea] | 51.1 ± 9.5 | – |
| CCCCOc1ccc(NC(=O)NCCc2cc(Br)c(O)c(Br)c2)cc1 [4d, 1-(4-butoxyphenyl)-3-(3,5-dibromo-4-hydroxyphenethyl)urea] | 914 ± 44.3 | – |
| COc1c(Br)cc(CCNC(=O)Nc2ccc(OCCCN3CCOCC3)cc2)cc1Br [6g] | – | IC50 [2]: 11.7 ± 3 nM |
| O=C(NCCc1cc(Br)c(O)c(Br)c1)Nc1ccccc1F [4m, 1-(3,5-dibromo-4-hydroxyphenethyl)-3-(2-fluorophenyl)urea] | 10.2 ± 2.3 | MTT, PC9, value relative to control (=100), single replicate ([3]; 25 (μM)): 72.71 and 78.44 and 89.41 and 73.662; MTT, PC9, value relative to control (=100), single replicate ([3]; 50 (μM)): 73.32 and 75.35 and 64.23 and 80.16; MTT, PC9, value relative to control (=100), single replicate ([3]; 75 (μM)): 63.32 and 73.36 and 69.44 and 65.21; MTT, PC9, value relative to control (=100), single replicate ([3]; 100 (μM)): 61.89 and 69.88 and 70.31 and 63.67; IC50 ([3]; Homo sapiens, PC-9, wild-type PC9, MTT, 24-hour treatment, 0–100 μM, read-out: IC50, growth inhibition): 55500 nM; MTT, PC9/GR, value relative to control (=100), single replicate ([4]; 25 (μM)): 62.45 and 66.61 and 79.63 and 68.61; MTT, PC9/GR, value relative to control (=100), single replicate ([4]; 50 (μM)): 61.78 and 67.43 and 60.72 and 69.73; MTT, PC9/GR, value relative to control (=100), single replicate ([4]; 75 (μM)): 48.89 and 53.34 and 39.63 and 40.04; MTT, PC9/GR, value relative to control (=100), single replicate ([4]; 100 (μM)): 37.64 and 39.62 and 40.69 and 41.33; IC50 ([4]; Homo sapiens, gefitinib-resistant PC9/GR, MTT, 24-hour treatment, 0–100 μM, read-out: IC50, growth inhibition): 39000 nM; selectivity towards cells with the drug-resistant phenotype ([4]; PC9/GR versus PC9): did not demonstrate significant selectivity |
| CCCOc1ccc(NC(=O)NCCc2cc(Br)c(O)c(Br)c2)cc1 [4c, 1-(3,5-dibromo-4-hydroxyphenethyl)-3-(4-propoxyphenyl)urea] | 297 ± 17.5 | – |
| Cc1ccc(NC(=O)NCCc2cc(Br)c(O)c(Br)c2)cc1 [4n, 1-(3,5-dibromo-4-hydroxyphenethyl)-3-(p-tolyl)urea] | 38.7 ± 8.1 | – |
| CC(C)Oc1ccc(NC(=O)NCCc2cc(Br)c(O)c(Br)c2)cc1 [4h, 1-(3,5-dibromo-4-hydroxyphenethyl)-3-(4-isopropoxyphenyl)urea] | 850 ± 32.7 | – |
| COc1ccc(NC(=O)NCCc2cc(Br)c(O)c(Br)c2)cc1 [4a, 1-(3,5-dibromo-4-hydroxyphenethyl)-3-(4-methoxyphenyl)urea] | 265 ± 20.7 | – |
| O=C(NCCc1cc(Br)c(O)c(Br)c1)Nc1ccc(OCCCN2CCOCC2)cc1 [4g, 1-(3,5-dibromo-4-hydroxyphenethyl)-3-(4-(3-morpholinopropoxy)phenyl)urea] | 167 ± 13.6 | – |
| COCCOc1ccc(NC(=O)NCCc2cc(Br)c(O)c(Br)c2)cc1 [4o, 1-(3,5-dibromo-4-hydroxyphenethyl)-3-(4-(2-methoxyethoxy)phenyl)urea] | 11.3 ± 26.2 | – |
| O=C(NCCc1cc(Br)c(O)c(Br)c1)Nc1ccccc1Cl [4j, 1-(2-chlorophenyl)-3-(3,5-dibromo-4-hydroxyphenethyl)urea] | 74.4 ± 13 | – |
| CCOc1ccc(NC(=O)NCCc2cc(Br)c(O)c(Br)c2)cc1 [4b, 1-(3,5-dibromo-4-hydroxyphenethyl)-3-(4-ethoxyphenyl)urea] | 170 ± 12.1 | – |
